PubChem BioAssay (NCI)
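Results reflect a 48-hour exposure of cells in 96-well plates to compound at five concentrations. TGI: total growth inhibition.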

Experiments:
Experiment in all cases: NCI tumour cell line growth inhibition, 48 h
DLD-1 colon = test system: DLD-1 colon
DMS 273 small cell lung = test system: DMS 273 small cell lung
LXFL 529 NSCLC = test system: LXFL 529 NSCLC
RXF-631 renal = test system: RXF-631 renal
XF 498 CNS = test system: XF 498 CNS
HOP-18 NSCLC = test system: HOP-18 NSCLC
P388 leukemia = test system: P388 leukemia
P388/ADR leukemia = test system: P388/ADR leukemia
SN12K1 renal = test system: SN12K1 renal
SNB-78 CNS = test system: SNB-78 CNS

| SMILES | TGI (DLD-1 colon) [µM] | TGI (DMS 273 small cell lung) [µM] | TGI (LXFL 529 NSCLC) [µM] | TGI (RXF-631 renal) [µM] | TGI (XF 498 CNS) [µM] | TGI (HOP-18 NSCLC) [µM] | TGI (P388 leukemia) [µM] | TGI (P388/ADR leukemia) [µM] | TGI (SN12K1 renal) [µM] | TGI (SNB-78 CNS) [µM] |
| --- | --- | --- | --- | --- | --- | --- | --- | --- | --- | --- |
| CCC12CCCN(Cc3ccccc3)C1c1c(n(C)c3ccccc13)C(CO)C2 (stereo unspecified) | > 257 | 89.7 | 87.4 | 142 | 79.7 | – | – | – | – | – |
| CC[C@@]1(O)C[C@H](OC2CC(N(C)C)C(O)C(C)O2)c2c(cc3c(c2O)C(=O)c2c(O)ccc(O)c2C3=O)[C@H]1C(=O)OC (stereo partly specified) | 0.891 | 0.406 | – | – | 0.463 | 1.3 | 0.0317 | 0.0561 | 0.256 | 1.34 |
| Cc1cc(=O)oc2cc(OCCCOc3ccc4c(C)cc(=O)oc4c3)ccc12 | > 100 | > 100 | > 100 | > 100 | > 100 | – | – | – | – | – |
| CC(C)(C)N/N=C(\C(=O)Nc1cccc(Cl)c1)C1C(=O)Nc2ccccc2S1=O (stereo unspecified) | > 100 | > 100 | > 100 | > 100 | > 100 | > 100 | – | – | – | – |
| CN(C)C(=O)Oc1c(Br)cc(Br)cc1C(=O)OCc1ccccc1 | > 96.8 | > 73.2 | – | – | 49.2 | 96.9 | 43 | 41.6 | > 88.2 | > 100 |
| CC1(C)OC[C@H](C(=N)OCc2ccccc2)O1 | > 100 | > 100 | > 100 | – | > 100 | – | – | – | – | > 100 |
| CCCCCCSc1nc(N)nc2nc[nH]c12 | > 100 | > 100 | – | – | > 89.6 | > 72.6 | > 68 | 44.4 | > 100 | > 100 |
| COc1cccc2c1OC1Sc3ccccc3-c3nn(-c4ccccc4)c-2c31 (stereo unspecified) | > 100 | > 100 | > 100 | > 100 | > 100 | > 100 | – | – | – | > 100 |
| O=C(CCBr)N1CCN(C(=O)CCBr)CC1 | 202 | 168 | 137 | 134 | 133 | 238 | 293 | 181 | 196 | 295 |
| COc1ccc2c(c1)Oc1cc(O)ccc1[C@H]2c1ccccc1C(=O)NC(C)c1ccccc1 (stereo partly specified) | 43.4 | 28.4 | 28.7 | – | – | – | – | – | – | 33.5 |
| COc1cccc2c1C(=O)c1c(O)c3c(c(O)c1C2=O)C[C@@](O)(C(C)=O)CC3S(=O)(=O)O (stereo partly specified) | > 100 | > 100 | > 100 | > 100 | > 100 | > 100 | – | – | – | > 100 |
| O=C1C=C(Nc2ccccc2C(=O)CC(=O)C(=O)Nc2ccc(Cl)cc2)c2ccccc2C1=O | 35.7 | 31.1 | 42.6 | > 80.8 | 28.6 | 8.72 | – | – | – | 81 |
| COC(=O)[C@H](CC(C)C)NC(=O)[C@H](Cc1ccccc1)N1CC2C=CC1C2 (stereo partly specified) | – | > 100 | > 100 | – | > 100 | > 100 | – | – | – | – |
| O=C(Cc1nc2ccc(C(=O)c3ccccc3)cc2[nH]c1=O)C(=O)Nc1nc2ccccc2[nH]1 | – | > 100 | > 100 | > 100 | – | > 100 | – | – | – | – |
| COC1OCC(O)C(NC(=O)N(C)N=O)C1O (stereo unspecified) | > 100 | > 100 | – | – | > 100 | > 100 | > 100 | > 100 | > 100 | > 100 |
